Data published in patent US20250049799A1, “Targeted Therapy of Pyrrolo[2,3-D]Pyrimidine Antifolates in a Syngeneic Mouse Model of High Grade Serous Ovarian Cancer” (Duquesne University of The Holy Spirit, priority 2021, published 2025).
Like-named read-outs stand apart in the source and are kept apart here.

Assays:
FRβ = FRβ (Homo sapiens, UniProt P14207); details: comparison of Table 3 values with PMX
[1] = system: BR-Luc mouse HGSOC tumor cells; assay: Cell proliferation assay (CellTiter-blue, 96 h), BR-Luc cells; type: cell-based
Experimental: (§1) Results with BR-5 and BR-Luc cells were compared to those for IGROV1 human EOC cells (Table 1) in the absence and presence of excess folic acid (200 nM), which selectively blocks FR-mediated drug uptake without effects on RFC or PCFT^6. […] Further, inhibitions of the murine EOCs by all compounds approximated those for IGROV1 human EOC cells.
(§2) Cell proliferation assays were performed as described^6, 21. Cells were plated in 96-well dishes at densities ranging from 2500-5000 cells/well in 200 μL media and treated with a range of inhibitors spanning 0-1000 nM. Experiments used BR-5 and BR-Luc cells and folate-free RPMI 1640 media with 10% dialyzed FBS and 100 units/mL penicillin/100 μg/mL streptomycin, supplemented with 25 nM leucovorin and 2 mM L-glutamine. FR-mediated drug uptake was assessed in parallel incubations including 200 nM folic acid. Cells were treated over a 96 h period at 37° C. with 5% CO2 and relative cell numbers were quantified using the CellTiter-blue cell viability assay (Promega, Madison, WI) and a fluorescence plate reader^21. Raw data were exported to Excel for analysis and the results plotted using Graphpad Prism 6.0.

IGROV1 human EOC cells = assay: Cell proliferation assay, IGROV1 cells; type: cell-based
Experimental: as §1, §2

[2] = system: BR-5 mouse HGSOC tumor cells; assay: Cell proliferation assay (CellTiter-blue, 96 h), BR-5 cells; type: cell-based
Experimental: as §1, §2

Sequence of FRβ (P14207 17-230): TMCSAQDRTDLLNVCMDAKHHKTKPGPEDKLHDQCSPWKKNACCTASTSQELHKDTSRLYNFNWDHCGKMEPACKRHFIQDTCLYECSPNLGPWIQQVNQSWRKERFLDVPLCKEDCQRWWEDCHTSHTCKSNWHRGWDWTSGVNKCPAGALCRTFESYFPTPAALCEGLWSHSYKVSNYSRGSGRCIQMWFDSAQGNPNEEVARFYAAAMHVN

`Nc1nc2[nH]c(CCCCc3ccc(C(=O)N[C@@H](CCC(=O)O)C(=O)O)c(F)c3)cc2c(=O)[nH]1` [Compound 8] was tested, and the “Transport by folate receptor beta compared with pemetrexed (PMX)” value (shortened to “Transport … compared with pemetrexed (PMX)”) (FRβ) was “at least ten times better transported”.

`Nc1nc2[nH]c(CCCCc3csc(C(=O)N[C@@H](CCC(=O)O)C(=O)O)c3)cc2c(=O)[nH]1` [Compound 5] was tested, and the “Transport … compared with pemetrexed (PMX)” value (FRβ) was “at least ten times better transported”.

For `Nc1nc2[nH]c(CCCCc3csc(C(=O)N[C@@H](CCC(=O)O)C(=O)O)c3F)cc2c(=O)[nH]1` [AGF278], the “Transport … compared with pemetrexed (PMX)” value (FRβ) was “at least ten times better transported”, the IC50 ([1]; Mus musculus, no folic acid, folate-free RPMI1640, 25 nM leucovorin, mean ± SE, read-out: IC50 anti-proliferative activity BR-Luc, No addition) was 6.06 ± 3.12 nM and the IC50 ([1]; Mus musculus, read-out: IC50 anti-proliferative activity BR-Luc, Folic Acid (200 nM), with 200 nM folic acid, mean ± SE) was 588 ± 162 nM. The IC50 (IGROV1 human EOC cells; Homo sapiens, IGROV-1, no folic acid, mean ± SE, read-out: IC50 anti-proliferative activity IGROV1, No addition) was 1.9 ± 0.15 nM, the IC50 (IGROV1 human EOC cells; Homo sapiens, IGROV-1, read-out: IC50 anti-proliferative activity IGROV1, Folic Acid (200 nM), with 200 nM folic acid, mean ± SE) was 426 ± 152 nM and the IC50 ([2]; Mus musculus, no folic acid, mean ± SE, read-out: IC50 anti-proliferative activity BR-5, No addition) was 6.55 ± 3.24 nM. It also gave an IC50 ([2]; Mus musculus, read-out: IC50 anti-proliferative activity BR-5, Folic Acid (200 nM), with 200 nM folic acid, mean ± SE) of 547 ± 188 nM.

`Nc1nc2[nH]c(CCCc3ccc(C(=O)N[C@@H](CCC(=O)O)C(=O)O)s3)cc2c(=O)[nH]1` [Compound 1] was tested, and the “Transport … compared with pemetrexed (PMX)” value (FRβ) was “at least ten times better transported”.

`N.N.[Cl][Pt][Cl]` [Cisplatin, reference compound] was tested, and the IC50 ([1]; no folic acid, folate-free RPMI1640, 25 nM leucovorin, mean ± SE, read-out: IC50 anti-proliferative activity BR-Luc, No addition) was 290 ± 170 nM, the IC50 (IGROV1 human EOC cells; no folic acid, mean ± SE, read-out: IC50 anti-proliferative activity IGROV1, No addition) was 857 ± 62.3 nM and the IC50 ([2]; no folic acid, mean ± SE, read-out: IC50 anti-proliferative activity BR-5, No addition) was 160 ± 110 nM.

`Nc1nc2[nH]c(CCCCc3ccc(C(=O)N[C@@H](CCC(=O)O)C(=O)O)nc3)cc2c(=O)[nH]1` [Compound 4] was tested, and the “Transport … compared with pemetrexed (PMX)” value (FRβ) was “at least ten times better transported”.

With `Nc1nc2[nH]c(CCCCc3cnc(C(=O)N[C@@H](CCC(=O)O)C(=O)O)c(F)c3)cc2c(=O)[nH]1` [Compound 10] the “Transport … compared with pemetrexed (PMX)” value (FRβ) was “at least ten times better transported”.

`Nc1nc2[nH]c(CCCCc3ccc(C(=O)N[C@@H](CCC(=O)O)C(=O)O)cc3)cc2c(=O)[nH]1` [Compound 2] was tested, and the “Transport … compared with pemetrexed (PMX)” value (FRβ) was “at least ten times better transported”.
